Test results: patent US20170150719A1, “FUNGICIDAL PYRAZOLES AND THEIR MIXTURES” (E I DU PONT DE NEMOURS AND COMPANY, priority 2010, published 2017)
Marks after values point to notes of the source that are not given here.

What was measured:
[1] = system: Septoria tritici; assay: Test F: wheat leaf blotch, preventive spray on wheat seedlings, visual disease rating; type: in vivo; design: pest or weed control: dose or concentration left out as unconfirmed; details: for Test F rating (% disease control) / pest or weed control / Test F rating (% disease control), marked *: preventive spray; for Test F rating (% disease control): rating without asterisk; for pest or weed control / Test F rating (% disease control), marked *: rating marked with asterisk (*), other test suspension concentration than unmarked ratings
Source text: A hyphen (-) indicates no test results.

[2] = system: Puccinia recondita f. sp. tritici; assay: Test H: wheat leaf rust, preventive spray on wheat seedlings, visual disease rating; details: for Test H rating (% disease control) / Test H rating (% disease control), marked *: wheat leaf rust, preventive spray; for Test H rating (% disease control): rating without asterisk; for pest or weed control at 40 µg/mL: read-out: Test H rating (% disease control), marked *, wheat leaf rust, preventive spray; for pest or weed control at 40 µg/mL / Test H rating (% disease control), marked *: rating marked with asterisk (*), other test suspension concentration than unmarked ratings
[3] = system: Botrytis cinerea; assay: Test A: tomato Botrytis, preventive spray on tomato seedlings, visual disease rating; details: for Test A rating (% disease control) / Test A rating (% disease control), marked *: tomato Botrytis, preventive spray; for Test A rating (% disease control): 0 = no control relative to controls, rating without asterisk; for pest or weed control at 40 µg/mL: read-out: Test A rating (% disease control), marked *, tomato Botrytis, preventive spray; for pest or weed control at 40 µg/mL / Test A rating (% disease control), marked *: rating marked with asterisk (*), other test suspension concentration than unmarked ratings
Description: General protocol for preparing test suspensions for Tests A-I: the test compounds were first dissolved in acetone in an amount equal to 3% of the final volume and then suspended at the desired concentration (in ppm) in acetone and purified water (50/50 mix by volume) containing 250 ppm of the surfactant Trem® 014 (polyhydric alcohol esters). The resulting test suspensions were then used in Tests A-I. Each test was conducted in triplicate, and the results were averaged. Spraying a 200 ppm test suspension to the point of run-off on the test plants was the equivalent of a rate of about 800 g/ha. Unless otherwise indicated, the rating values indicate a 200 ppm test suspension was used. (An asterisk “*” next to the rating value indicates a 40 ppm test suspension was used.)
The test suspension was sprayed to the point of run-off on tomato seedlings. The following day the seedlings were inoculated with a spore suspension of Botrytis cinerea (the causal agent of tomato Botrytis) and incubated in saturated atmosphere at 20° C. for 48 h, and then moved to a growth chamber at 24° C. for 3 additional days, after which time visual disease ratings were made.

[4] = system: Blumeria graminis f. sp. tritici; assay: Test I: wheat powdery mildew, preventive spray on wheat seedlings, visual disease rating; details: for Test I rating (% disease control) / Test I rating (% disease control), marked *: wheat powdery mildew, preventive spray; for Test I rating (% disease control): rating without asterisk; for pest or weed control at 40 µg/mL: read-out: Test I rating (% disease control), marked *, wheat powdery mildew, preventive spray; for pest or weed control at 40 µg/mL / Test I rating (% disease control), marked *: rating marked with asterisk (*), other test suspension concentration than unmarked ratings
[5] = system: Septoria nodorum; assay: Test E: Septoria glume blotch, preventive spray on wheat seedlings, visual disease rating; details: Septoria glume blotch on wheat, preventive spray; rating marked with asterisk (*), other test suspension concentration than unmarked ratings
[6] = Botrytis cinerea, in Solanum lycopersicum
[7] = Blumeria graminis, in Triticum aestivum

Structure (SMILES) | Test F rating (% disease control) ([1]; 100 = 100% disease control) [%] | Test H rating (% disease control) ([2]; 100 = 100% disease control) [%] | Test A rating (% disease control) ([3]; 100 = 100% disease control) [%] | Test I rating (% disease control) ([4]; 100 = 100% disease control) [%] | pest or weed control ([1]; Zymoseptoria tritici) [%] | pest or weed control at 40 µg/mL [2] [%] | pest or weed control at 40 µg/mL [3, 6] [%] | pest or weed control at 40 µg/mL [4, 7] [%] | further results
Cc1nn(C)c(Nc2c(F)cc(Cl)cc2F)c1-c1ccc(C#N)cc1F [Compound 150, 4-[5-[(4-chloro-2,6-difluorophenyl)amino]-1,3-dimethyl-1H-pyrazol-4-yl]-3-fluorobenzonitrile] |  |  |  |  |  |  |  |  | pest or weed control at 200 µg/mL ([1]; Zymoseptoria tritici, 100 = 100% disease control, 0 = no disease control relative to the controls): 100%; pest or weed control at 200 µg/mL ([2]; read-out: Test H rating (disease control), wheat leaf rust, sprayed the day before inoculation, 100 = 100% disease control, 0 = no disease control): 100%; pest or weed control at 200 µg/mL ([3]; Botrytis cinerea, in Solanum lycopersicum, read-out: Test A rating (disease control), tomato Botrytis, 100 = 100% disease control, 0 = no disease control relative to the controls): 100%; pest or weed control at 200 µg/mL ([4]; Blumeria graminis, in Triticum aestivum, read-out: Test I rating (disease control), wheat powdery mildew, 100 = 100% disease control, 0 = no disease control relative to the controls): 100%
Cc1nn(C)c(Nc2ccc(F)cc2Cl)c1-c1ccc(C#N)cc1F [Compound 248] | 100 | 99 | 99 | 99 |  |  |  |  | 
COc1ccc(-c2c(C)nn(C)c2Nc2c(C)cccc2Cl)c(F)c1 [Compound 257, N-(2-chloro-6-methylphenyl)-4-(2-fluoro-4-methoxyphenyl)-1,3-dimethyl-1H-pyrazol-5-amine] |  |  |  |  | 100 | 63 | 100 | 27 | Test E rating (% disease control), marked * [5]: 31* %
COc1ccc(-c2c(C)nn(C)c2Nc2c(C)cccc2Br)c(F)c1 [Compound 258, N-(2-bromo-6-methylphenyl)-4-(2-fluoro-4-methoxyphenyl)-1,3-dimethyl-1H-pyrazol-5-amine] |  |  |  |  | 100 | 9 | 100 | 0 | Test E rating (% disease control), marked * [5]: 0* %
COc1ccc(-c2c(C)nn(C)c2Nc2c(C)cccc2F)c(F)c1 [Compound 259, 4-(2-fluoro-4-methoxyphenyl)-N-(2-fluoro-6-methylphenyl)-1,3-dimethyl-1H-pyrazol-5-amine] |  |  |  |  | 100 | 82 | 100 | 90 | Test E rating (% disease control), marked * [5]: 0* %
COc1ccc(-c2c(C)nn(C)c2Nc2c(F)cccc2Cl)c(F)c1 [Compound 260, N-(2-chloro-6-fluorophenyl)-4-(2-fluoro-4-methoxyphenyl)-1,3-dimethyl-1H-pyrazol-5-amine] |  |  |  |  | 100 | 85 | 100 | 90 | Test E rating (% disease control), marked * [5]: 0* %
COc1ccc(-c2c(C)nn(C)c2Nc2c(F)cccc2Br)c(F)c1 [Compound 261, N-(2-bromo-6-fluorophenyl)-4-(2-fluoro-4-methoxyphenyl)-1,3-dimethyl-1H-pyrazol-5-amine] |  |  |  |  | 100 | 97 |  | 95 | Test E rating (% disease control), marked * [5]: 0* %
COc1ccc(-c2c(C)nn(C)c2Nc2c(C)cccc2Cl)c(Cl)c1 [Compound 262, 4-(2-chloro-4-methoxyphenyl)-N-(2-chloro-6-methylphenyl)-1,3-dimethyl-1H-pyrazol-5-amine] |  |  |  |  | 100 | 85 | 97 | 79 | Test E rating (% disease control), marked * [5]: 0* %
COc1ccc(-c2c(C)nn(C)c2Nc2c(C)cccc2Br)c(Cl)c1 [Compound 263, N-(2-bromo-6-methylphenyl)-4-(2-chloro-4-methoxyphenyl)-1,3-dimethyl-1H-pyrazol-5-amine] |  |  |  |  | 100 | 79 | 99 |  | Test I rating (% disease control), marked * [4]: 13* %; Test E rating (% disease control), marked * [5]: 0* %
Cc1cccc(C)c1Nc1c(-c2ccc(F)cc2F)c(C)nn1C [Compound 270, 4-(2,4-difluorophenyl)-N-(2,6-dimethylphenyl)-1,3-dimethyl-1H-pyrazol-5-amine] |  |  |  |  | 100 | 41 | 98 | 91 | 
Cc1cccc(C)c1Nc1c(-c2ccc(F)cc2Cl)c(C)nn1C [Compound 271, 4-(2-chloro-4-fluorophenyl)-N-(2,6-dimethylphenyl)-1,3-dimethyl-1H-pyrazol-5-amine] |  |  |  |  | 100 | 97 | 99 | 98 | 
Cc1cccc(Cl)c1Nc1c(-c2ccc(F)cc2Br)c(C)nn1C [Compound 276, 4-(2-bromo-4-fluorophenyl)-N-(2-chloro-6-methylphenyl)-1,3-dimethyl-1H-pyrazol-5-amine] |  |  |  |  | 100 | 99 | 100 | 92 | 
Cc1nn(C)c(Nc2ccc(F)cc2Cl)c1-c1ccc(Br)cc1F [compound 232] | 100 | 90 | 79 | 99 |  |  |  |  | 
Cc1nn(C)c(Nc2c(Cl)cc(F)cc2Cl)c1-c1ccc(Br)cc1F [compound 233] | 100 | 91 | 36 | 89 |  |  |  |  | 
Cc1nn(C)c(Nc2c(F)cc(F)cc2Cl)c1-c1ccc(Br)cc1F [compound 234] | 100 | 91 | 97 | 79 |  |  |  |  | 
Cc1nn(C)c(Nc2c(F)cc(F)cc2Br)c1-c1ccc(Br)cc1F [compound 235] | 100 | 96 | 99 | 90 |  |  |  |  | 
Cc1nn(C)c(Nc2c(F)cc(Cl)cc2F)c1-c1ccc(Br)cc1F [compound 236] | 100 | 28 | 47 | 0 |  |  |  |  | 
Cc1nn(C)c(Nc2c(F)cc(Cl)cc2Cl)c1-c1ccc(Br)cc1F [compound 237] | 100 | 92 | 99 | 95 |  |  |  |  | 
Cc1nn(C)c(Nc2ccccc2Br)c1-c1ccc(F)cc1Br [compound 242] |  |  |  |  |  |  |  |  | Test F rating (% disease control), marked * [1]: 100* %; Test H rating (% disease control), marked * [2]: 96* %; Test A rating (% disease control), marked * [3]: 99* %; Test I rating (% disease control), marked * [4]: 99* %
Cc1nn(C)c(Nc2ccccc2I)c1-c1ccc(F)cc1Br [compound 243] | 100 | 99 | 100 | 100 |  |  |  |  | 
Cc1nn(C)c(Nc2ccccc2I)c1-c1ccc(F)cc1F [compound 246] | 100 | 98 | 100 | 99 |  |  |  |  | 
Cc1nn(C)c(Nc2c(Cl)cc(F)cc2Cl)c1-c1ccc(C#N)cc1F [compound 249] | 100 | 98 | 100 | 92 |  |  |  |  | 
Cc1nn(C)c(Nc2c(F)cc(F)cc2C#N)c1-c1ccc(C#N)cc1F [compound 250] | 100 | 100 | 0 | 89 |  |  |  |  | 
Cc1nn(C)c(Nc2c(Cl)cccc2Cl)c1-c1ccc(F)cc1F [compound 251] | 100 | 100 | 100 | 100 |  |  |  |  | 
Cc1nn(C)c(Nc2c(Cl)cccc2Cl)c1-c1ccc(F)cc1Cl [compound 255] |  |  |  |  |  |  |  |  | Test F rating (% disease control), marked * [1]: 100* %; Test H rating (% disease control), marked * [2]: 99* %; Test A rating (% disease control), marked * [3]: 100* %; Test I rating (% disease control), marked * [4]: 81* %
Cc1nn(C)c(Nc2c(Cl)cccc2Cl)c1-c1ccc(F)cc1Br [compound 256] |  |  |  |  |  |  |  |  | Test F rating (% disease control), marked * [1]: 100* %; Test H rating (% disease control), marked * [2]: 95* %; Test A rating (% disease control), marked * [3]: 99* %; Test I rating (% disease control), marked * [4]: 64* %
Cc1nn(C)c(Nc2ccccc2Cl)c1-c1ccc(F)cc1Br [compound 272] | 100 | 99 | 100 | 100 |  |  |  |  | 
